Test results as given in patent publication US9783505B2, “Substituted diaminopyrimidyl compounds, compositions thereof, and methods of treatment therewith” (Signal Pharmaceuticals, LLC, priority 2013, dated 2017).

Tests used:
PKC delta = target: T1, PKC delta (Homo sapiens, UniProt Q05655); assay: PKC delta Assay (384-well time resolved fluorescence, IMAP TR-FRET); format: biochemical; conditions: selectivity for PKC-theta over PKC-delta
T1 construct: purchased Invitrogen
Method: PKC delta Assay. A 384-well time resolved fluorescence assay was used to monitor PKC delta activity. The PKC delta assay was run in the following assay buffer: 50 mM HEPES pH 7.6, 10 mM MgCl2, 1 mM DTT, 0.01% Triton X-100, 0.01% BSA and 0.1 mM EDTA. To initiate the reaction, 200 nM of Fam-labeled S6-derived peptide (Molecular Devices) and 10 μM of ATP were mixed with 1.5 nM of PKC delta (Invitrogen), for a total assay volume of 25 μL in each well. The assay was incubated at room temperature for 2 hours and terminated using a 60 μL/well mixture of Detection Binding Solution: 70% IMAP Progressive Binding Buffer A, 30% IMAP Progressive Binding Buffer B, 1:600 Progressive Binding Reagent, and 1:400 TR-FRET Tb Donor (Molecular Devices). The assay plates were then incubated overnight at room temperature and read on the Perkin-Elmer Envision Reader.

His-PKC-theta = target: T2, His-PKC-theta (Homo sapiens, UniProt Q04759); assay: PKC-theta Assay (384-well time resolved fluorescence, IMAP TR-FRET); format: biochemical; conditions: read-out: Act. Level (IC50 in the PKC-theta Assay)
T2 construct: His; purchased Invitrogen
Procedure, shortened: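 Fam-labeled S6-derived peptide (200 nM) and 10 μM ATP were reacted with 142 pM enzyme for 2 h at room temperature in HEPES pH 7.6 buffer with MgCl2, DTT, Triton X-100, BSA and EDTA. The reaction was stopped with IMAP progressive binding reagent plus Tb donor, incubated overnight, then TR-FRET read.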

T1 sequence (Q05655 whole entry): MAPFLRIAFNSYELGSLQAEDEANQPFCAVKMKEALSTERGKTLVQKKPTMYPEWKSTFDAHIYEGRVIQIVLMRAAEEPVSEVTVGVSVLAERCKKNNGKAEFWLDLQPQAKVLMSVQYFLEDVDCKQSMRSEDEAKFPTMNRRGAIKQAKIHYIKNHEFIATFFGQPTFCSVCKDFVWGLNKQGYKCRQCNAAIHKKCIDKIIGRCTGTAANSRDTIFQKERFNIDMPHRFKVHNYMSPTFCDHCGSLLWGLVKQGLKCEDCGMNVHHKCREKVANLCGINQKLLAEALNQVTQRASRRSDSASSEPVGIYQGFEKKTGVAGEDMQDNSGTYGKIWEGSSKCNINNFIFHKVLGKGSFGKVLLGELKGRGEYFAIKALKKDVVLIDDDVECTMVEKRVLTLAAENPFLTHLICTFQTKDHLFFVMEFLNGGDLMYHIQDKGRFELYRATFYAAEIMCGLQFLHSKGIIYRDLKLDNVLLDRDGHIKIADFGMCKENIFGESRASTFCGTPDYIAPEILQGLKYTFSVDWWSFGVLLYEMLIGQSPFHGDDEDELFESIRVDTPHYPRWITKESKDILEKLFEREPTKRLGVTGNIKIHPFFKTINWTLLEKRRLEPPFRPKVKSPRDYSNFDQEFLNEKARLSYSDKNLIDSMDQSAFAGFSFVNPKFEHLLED
T2 sequence (Q04759 whole entry): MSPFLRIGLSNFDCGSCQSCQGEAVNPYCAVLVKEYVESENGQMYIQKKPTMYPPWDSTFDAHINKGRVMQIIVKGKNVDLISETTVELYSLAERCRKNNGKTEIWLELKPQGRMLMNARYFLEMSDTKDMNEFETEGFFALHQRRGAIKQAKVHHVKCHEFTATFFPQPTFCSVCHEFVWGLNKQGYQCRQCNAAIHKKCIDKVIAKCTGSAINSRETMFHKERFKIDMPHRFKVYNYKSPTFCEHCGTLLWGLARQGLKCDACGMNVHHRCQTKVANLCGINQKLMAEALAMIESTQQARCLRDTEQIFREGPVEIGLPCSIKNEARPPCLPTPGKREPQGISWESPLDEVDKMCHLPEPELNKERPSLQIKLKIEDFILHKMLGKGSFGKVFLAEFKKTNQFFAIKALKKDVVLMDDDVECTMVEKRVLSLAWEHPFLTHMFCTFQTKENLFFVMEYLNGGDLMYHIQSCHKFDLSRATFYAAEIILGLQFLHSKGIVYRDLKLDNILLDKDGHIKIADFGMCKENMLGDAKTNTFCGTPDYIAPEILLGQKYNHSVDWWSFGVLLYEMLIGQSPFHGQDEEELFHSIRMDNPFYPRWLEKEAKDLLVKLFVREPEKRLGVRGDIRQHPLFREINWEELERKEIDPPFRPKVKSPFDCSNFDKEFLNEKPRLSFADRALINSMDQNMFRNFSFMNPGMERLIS

| IC50 (His-PKC-theta) [nM] | SMILES | Sel. Level (ratio of IC50 PKC-delta/IC50 PKC-theta) (PKC delta) |
| --- | --- | --- |
| 2000 to 10000 | Cc1nccnc1CCNc1ncc(C#N)c(N[C@H]2CC[C@@H](C(N)=O)CC2)n1 [Cmpd 321] | H (selectivity level of 5-fold or less (selectivity level H)) |
| 100 to 800 | CC1(C)C[C@H](Nc2nc(NCCc3ccnc(C(F)(F)F)c3)ncc2C#N)CC[C@@H]1O [Cmpd 272] | G (selectivity between 5- and 20-fold (selectivity level G)) |
| 800 to 2000 | CC1(C)[C@@H](Nc2nc(NCCC3C(=O)Nc4cc(F)ccc43)ncc2C#N)CCC[C@@H]1O (stereo partly shown) [Cmpd 309] | G (selectivity between 5- and 20-fold (selectivity level G)) |
| 100 to 800 | CC1(C)[C@@H](Nc2nc(NCCC3C(=O)Nc4ccccc43)ncc2C#N)CCC[C@@H]1O (stereo partly shown) [Cmpd 305] | G (selectivity between 5- and 20-fold (selectivity level G)) |
| 2000 to 10000 | CC1(C)[C@@H](O)C[C@H]1Nc1nc(NCCc2ncon2)ncc1C#N [Cmpd 230] | H (selectivity level of 5-fold or less (selectivity level H)) |
| 100 to 800 | CC1(C)C[C@H](Nc2nc(NCCc3c[nH]c4cnccc34)ncc2C#N)CC[C@@H]1O [Cmpd 283] | F (selectivity of between 20- and 100-fold (selectivity level F)) |
| < 100 | CC1(C)[C@H](Nc2nc(NCc3cncnc3OCC(F)F)ncc2C#N)C[C@]1(C)O [Cmpd 332] | E (selectivity (Sel. Level=ratio of IC50 PKC-delta/IC50 PKC-theta) of >100-fold (selectivity level E)) |
| 100 to 800 | CC1(C)C[C@H](Nc2nc(NCCc3ccc(OCC(F)(F)F)nc3)ncc2C#N)CC[C@@H]1O [Cmpd 253] | F (selectivity of between 20- and 100-fold (selectivity level F)) |
| 2000 to 10000 | CC1(C)C[C@H](Nc2nc(NCC[C@]3(C)C(=O)Nc4ccccc43)ncc2C#N)CC[C@@H]1O [Cmpd 303] | H (selectivity level of 5-fold or less (selectivity level H)) |
| 2000 to 10000 | CC1(C)CC(Nc2nc(NCCc3c[nH]c4cccnc34)ncc2C#N)CC[C@@H]1O (stereo partly shown) [Cmpd 255] | H (selectivity level of 5-fold or less (selectivity level H)) |
| 2000 to 10000 | COCc1noc(CCNc2ncc(C#N)c(N[C@@H]3CC(O)C3(C)C)n2)n1 (stereo partly shown) [Cmpd 236] | H (selectivity level of 5-fold or less (selectivity level H)) |
| < 100 | CC(F)(F)COc1ncncc1CNc1ncc(C#N)c(N[C@H]2CCC[C@@H](O)C2(C)C)n1 [Cmpd 298] | E (selectivity (Sel. Level=ratio of IC50 PKC-delta/IC50 PKC-theta) of >100-fold (selectivity level E)) |
| 800 to 2000 | CC1(C)C[C@H](Nc2nc(NCCc3cncc(C(F)(F)F)c3)ncc2C#N)CC[C@@H]1O [Cmpd 271] | G (selectivity between 5- and 20-fold (selectivity level G)) |
| 100 to 800 | CC1(C)C[C@H](Nc2nc(NCCc3cccc4cc[nH]c34)ncc2C#N)CCC1O (stereo partly shown) [Cmpd 217] | G (selectivity between 5- and 20-fold (selectivity level G)) |
| 800 to 2000 | CC1(C)[C@@H](O)C[C@H]1Nc1nc(NCCc2ccnc(C(F)(F)F)c2)ncc1C#N [Cmpd 273] | G (selectivity between 5- and 20-fold (selectivity level G)) |
| 800 to 2000 | CC1(C)C[C@H](Nc2nc(NCCc3cc4ccccc4[nH]3)ncc2C#N)CC[C@@H]1O [Cmpd 200] | G (selectivity between 5- and 20-fold (selectivity level G)) |
| 100 to 800 | CC1(C)[C@@H](O)C[C@H]1Nc1nc(NCCc2cn[nH]c2)ncc1C#N [Cmpd 244] | G (selectivity between 5- and 20-fold (selectivity level G)) |
| 100 to 800 | CC1(C)C[C@H](Nc2nc(NCCc3cn[nH]c3)ncc2C#N)CC[C@@H]1O [Cmpd 208] | G (selectivity between 5- and 20-fold (selectivity level G)) |
| 2000 to 10000 | CC1(C)C(O)C[C@H]1Nc1nc(NCCc2cnccn2)ncc1C#N (stereo partly shown) [Cmpd 226] | H (selectivity level of 5-fold or less (selectivity level H)) |
| 2000 to 10000 | CC1(C)C[C@H](Nc2nc(NCCc3ccncn3)ncc2C#N)CC[C@@H]1O [Cmpd 278] | H (selectivity level of 5-fold or less (selectivity level H)) |
| 2000 to 10000 | Cc1cc(CCNc2ncc(C#N)c(N[C@H]3CC[C@@H](C(N)=O)CC3)n2)ncn1 [Cmpd 319] | H (selectivity level of 5-fold or less (selectivity level H)) |

| IC50 (His-PKC-theta) [nM] | SMILES | Sel. Level (ratio of IC50 PKC-delta/IC50 PKC-theta) (PKC delta) |
| --- | --- | --- |
| 800 to 2000 | CC1(C)[C@@H](O)C[C@H]1Nc1nc(NCCc2ccn[nH]2)ncc1C#N [Cmpd 245] | G (selectivity between 5- and 20-fold (selectivity level G)) |
| 100 to 800 | CC1(C)[C@H](O)CCC[C@H]1Nc1nc(NCCC2C(=O)Nc3ccc(F)cc32)ncc1C#N (stereo partly shown) [Cmpd 314] | H (selectivity level of 5-fold or less (selectivity level H)) |
| 800 to 2000 | CC1(C)[C@H](O)CCC[C@H]1Nc1nc(NCCC2C(=O)Nc3cc(F)ccc32)ncc1C#N (stereo partly shown) [Cmpd 310] | H (selectivity level of 5-fold or less (selectivity level H)) |
| 100 to 800 | CC1(C)[C@@H](O)C[C@H]1Nc1nc(NCCc2c[nH]c3cc(F)ccc23)ncc1C#N [Cmpd 265] | G (selectivity between 5- and 20-fold (selectivity level G)) |
| 2000 to 10000 | Cc1cccnc1CCNc1ncc(C#N)c(N[C@@H]2CC[C@H](O)C(C)(C)C2)n1 [Cmpd 214] | H (selectivity level of 5-fold or less (selectivity level H)) |
| 800 to 2000 | CC1(C)C(O)C[C@H]1Nc1nc(NCCc2cccnc2)ncc1C#N (stereo partly shown) [Cmpd 231] | G (selectivity between 5- and 20-fold (selectivity level G)) |
| < 100 | CC1(C)[C@@H](O)C[C@H]1Nc1nc(NCCc2c[nH]c3ccccc23)ncc1C#N [Cmpd 240] | G (selectivity between 5- and 20-fold (selectivity level G)) |
| 800 to 2000 | Cc1cc2ccccc2n1CCNc1ncc(C#N)c(N[C@@H]2C[C@H](O)C2(C)C)n1 [Cmpd 243] | G (selectivity between 5- and 20-fold (selectivity level G)) |
| 800 to 2000 | CC1(C)C[C@H](Nc2nc(NCCc3ccn[nH]3)ncc2C#N)CC[C@@H]1O [Cmpd 216] | G (selectivity between 5- and 20-fold (selectivity level G)) |
| 800 to 2000 | Cc1cc(C(F)(F)F)nn1CCNc1ncc(C#N)c(N[C@@H]2CC[C@H](O)C(C)(C)C2)n1 [Cmpd 210] | G (selectivity between 5- and 20-fold (selectivity level G)) |
| < 100 | CC1(C)[C@@H](c2nc[nH]n2)C[C@H]1Nc1nc(NCCC2C(=O)Nc3ccccc32)ncc1C#N (stereo partly shown) [Cmpd 317] | E (selectivity (Sel. Level=ratio of IC50 PKC-delta/IC50 PKC-theta) of >100-fold (selectivity level E)) |
| 100 to 800 | CC1(C)[C@H](O)CCC[C@@H]1Nc1nc(NCCC2C(=O)Nc3ccccc32)ncc1C#N (stereo partly shown) [Cmpd 307] | G (selectivity between 5- and 20-fold (selectivity level G)) |
| 100 to 800 | CC1(C)[C@@H](O)CCC[C@H]1Nc1nc(NCCC2C(=O)Nc3ccccc32)ncc1C#N (stereo partly shown) [Cmpd 308] | H (selectivity level of 5-fold or less (selectivity level H)) |
| < 100 | CC(F)(F)COc1ncncc1CNc1ncc(C#N)c(N[C@@H]2C[C@](C)(O)C2(C)C)n1 [Cmpd 333] | E (selectivity (Sel. Level=ratio of IC50 PKC-delta/IC50 PKC-theta) of >100-fold (selectivity level E)) |
| 800 to 2000 | C[C@]1(O)CC2(C[C@H](Nc3nc(NCCC4C(=O)Nc5ccccc54)ncc3C#N)C2)C1 (stereo partly shown) [Cmpd 302] | G (selectivity between 5- and 20-fold (selectivity level G)) |
| 2000 to 10000 | CC(F)(F)COc1ncncc1CNc1ncc(C#N)c(N[C@H]2CCC[C@](C)(O)C2)n1 [Cmpd 285] | H (selectivity level of 5-fold or less (selectivity level H)) |
| 800 to 2000 | CC1(C)C[C@H](Nc2nc(NCCc3cc(Cl)c[n+]([O-])c3)ncc2C#N)CC[C@@H]1O [Cmpd 275] | G (selectivity between 5- and 20-fold (selectivity level G)) |
| 100 to 800 | Cc1ncccc1CCNc1ncc(C#N)c(N[C@@H]2CC[C@H](O)C(C)(C)C2)n1 [Cmpd 258] | F (selectivity of between 20- and 100-fold (selectivity level F)) |
| 2000 to 10000 | CC1(C)C[C@H](Nc2nc(NCCn3cc(C#N)cn3)ncc2C#N)CC[C@@H]1O [Cmpd 213] | H (selectivity level of 5-fold or less (selectivity level H)) |
| 2000 to 10000 | CC1(C)[C@@H](O)C[C@H]1Nc1nc(NCCc2nc3ccccc3o2)ncc1C#N [Cmpd 242] | H (selectivity level of 5-fold or less (selectivity level H)) |
